# According to ChEMBL document CHEMBL3885881, “DrugMatrix”:
# Species: Rattus norvegicus
# Test: DrugMatrix - Regimen: Daily Repeat
# Type: toxicity, organism-based, Sprague-Dawley
# Set-up: regimen Daily Repeat, gender Male, age 6-8 weeks
# Conditions: in vivo, sc, route subcutaneous, […]; for ABSOLUTE BASOPHIL / ABSOLUTE EOSINOPHIL / ABSOLUTE LYMPHOCYTE / ABSOLUTE MONOCYTE / ABSOLUTE SEGMENTED NEUTROPHIL / BASOPHIL / EOSINOPHIL / ERYTHROCYTE COUNT / HEMATOCRIT / HEMOGLOBIN / LEUKOCYTE COUNT / LYMPHOCYTE / MEAN CORPUSCULAR HEMOGLOBIN / MEAN CORPUSCULAR HEMOGLOBIN CONCENTRATION / MEAN CORPUSCULAR VOLUME / MONOCYTE / NEUTROPHIL / NUCLEATED RED BLOOD CELLS / PLATELET COUNT: tissue Blood; for ALANINE AMINOTRANSFERASE / ALBUMIN / ALKALINE PHOSPHATASE / ASPARTATE AMINOTRANSFERASE / BLOOD UREA NITROGEN / CARBON DIOXIDE / CHLORIDE / CHOLESTEROL / CREATINE PHOSPHOKINASE / CREATININE / GLUCOSE / LACTATE DEHYDROGENASE / LIPASE / PHOSPHORUS / POTASSIUM / SODIUM / TOTAL BILIRUBIN / TOTAL PROTEIN / URIC ACID: tissue Plasma
# [1] = 2 mg/kg, 120 h, dose level Low, time 5 day
# [2] = 17 mg/kg, 72 h, dose level High, time 3 day
# [3] = 17 mg/kg, 120 h, dose level High, time 5 day
structure (smiles),measurement,setting,value
CCC(=O)O[C@]1(C(=O)CCl)[C@@H](C)C[C@H]2[C@@H]3CCC4=CC(=O)C=C[C@]4(C)[C@@]3(F)[C@@H](O)C[C@@]21C [CLOBETASOL PROPIONATE],ABSOLUTE BASOPHIL,[1],0 CELLS/uL
same,ABSOLUTE EOSINOPHIL,[1],128.67 CELLS/uL
same,ABSOLUTE LYMPHOCYTE,[1],583 CELLS/uL
same,ABSOLUTE MONOCYTE,[1],17.33 CELLS/uL
same,ABSOLUTE SEGMENTED NEUTROPHIL,[1],7437.67 CELLS/uL
same,BASOPHIL,[1],0%
same,EOSINOPHIL,[1],1.33%
same,ERYTHROCYTE COUNT,[1],6.32 x10E6/uL
same,HEMATOCRIT,[1],40.2%
same,HEMOGLOBIN,[1],14.5 G/DL
same,LEUKOCYTE COUNT,[1],8.17 x10E3/uL
same,LYMPHOCYTE,[1],6.67%
same,MEAN CORPUSCULAR HEMOGLOBIN,[1],23.07 pg
same,MEAN CORPUSCULAR HEMOGLOBIN CONCENTRATION,[1],36.1 G/DL
same,MEAN CORPUSCULAR VOLUME,[1],63.83 fL
same,MONOCYTE,[1],0.33%
same,NEUTROPHIL,[1],91.67%
same,NUCLEATED RED BLOOD CELLS,[1],0 /100WBC
same,PLATELET COUNT,[1],805.67 x10E3/uL
same,ALANINE AMINOTRANSFERASE,[1],191.67 u/L
same,ALBUMIN,[1],4.53 G/DL
same,ALKALINE PHOSPHATASE,[1],392 u/L
same,ASPARTATE AMINOTRANSFERASE,[1],342 u/L
same,BLOOD UREA NITROGEN,[1],24.33 mg/dL
same,CARBON DIOXIDE,[1],19.67 mmol/L
same,CHLORIDE,[1],102.67 MEQ/L
same,CHOLESTEROL,[1],160 mg/dL
same,CREATINE PHOSPHOKINASE,[1],1604 u/L
same,CREATININE,[1],0.28 mg/dL
same,GLUCOSE,[1],604.67 mg/dL
same,LACTATE DEHYDROGENASE,[1],516.33 u/L
same,LIPASE,[1],10.33 u/L
same,PHOSPHORUS,[1],11.93 mg/dL
same,POTASSIUM,[1],4.7 MEQ/L
same,SODIUM,[1],143.1 MEQ/L
same,TOTAL BILIRUBIN,[1],0.7 mg/dL
same,TOTAL PROTEIN,[1],6.67 G/DL
same,URIC ACID,[1],0.9 mg/dL
same,ABSOLUTE BASOPHIL,[2],0 CELLS/uL
same,ABSOLUTE EOSINOPHIL,[2],24 CELLS/uL
same,ABSOLUTE LYMPHOCYTE,[2],383 CELLS/uL
same,ABSOLUTE MONOCYTE,[2],0 CELLS/uL
same,ABSOLUTE SEGMENTED NEUTROPHIL,[2],2026.33 CELLS/uL
same,BASOPHIL,[2],0%
same,EOSINOPHIL,[2],1%
same,ERYTHROCYTE COUNT,[2],5.77 x10E6/uL
same,HEMATOCRIT,[2],36.77%
same,HEMOGLOBIN,[2],13.07 G/DL
same,LEUKOCYTE COUNT,[2],2.43 x10E3/uL
same,LYMPHOCYTE,[2],15.67%
same,MEAN CORPUSCULAR HEMOGLOBIN,[2],22.7 pg
same,MEAN CORPUSCULAR HEMOGLOBIN CONCENTRATION,[2],35.57 G/DL
same,MEAN CORPUSCULAR VOLUME,[2],63.9 fL
same,MONOCYTE,[2],0%
same,NEUTROPHIL,[2],83.33%
same,NUCLEATED RED BLOOD CELLS,[2],0 /100WBC
same,PLATELET COUNT,[2],1160 x10E3/uL
same,ALANINE AMINOTRANSFERASE,[2],95 u/L
same,ALBUMIN,[2],5.23 G/DL
same,ALKALINE PHOSPHATASE,[2],460.67 u/L
same,ASPARTATE AMINOTRANSFERASE,[2],128.33 u/L
same,BLOOD UREA NITROGEN,[2],25.67 mg/dL
same,CARBON DIOXIDE,[2],23.33 mmol/L
same,CHLORIDE,[2],101.5 MEQ/L
same,CHOLESTEROL,[2],162.67 mg/dL
same,CREATINE PHOSPHOKINASE,[2],209.33 u/L
same,CREATININE,[2],0.29 mg/dL
same,GLUCOSE,[2],571.33 mg/dL
same,LACTATE DEHYDROGENASE,[2],160.33 u/L
same,LIPASE,[2],10.5 u/L
same,PHOSPHORUS,[2],10 mg/dL
same,POTASSIUM,[2],4.82 MEQ/L
same,SODIUM,[2],141.8 MEQ/L
same,TOTAL BILIRUBIN,[2],0.2 mg/dL
same,TOTAL PROTEIN,[2],7.47 G/DL
same,URIC ACID,[2],0.4 mg/dL
same,ABSOLUTE BASOPHIL,[3],0 CELLS/uL
same,ABSOLUTE EOSINOPHIL,[3],214.67 CELLS/uL
same,ABSOLUTE LYMPHOCYTE,[3],340.67 CELLS/uL
same,ABSOLUTE MONOCYTE,[3],76.33 CELLS/uL
same,ABSOLUTE SEGMENTED NEUTROPHIL,[3],17401.67 CELLS/uL
same,BASOPHIL,[3],0%
same,EOSINOPHIL,[3],1%
same,ERYTHROCYTE COUNT,[3],6.25 x10E6/uL
same,HEMATOCRIT,[3],38.87%
same,HEMOGLOBIN,[3],14.47 G/DL
same,LEUKOCYTE COUNT,[3],18.03 x10E3/uL
same,LYMPHOCYTE,[3],2%
same,MEAN CORPUSCULAR HEMOGLOBIN,[3],23.17 pg
same,MEAN CORPUSCULAR HEMOGLOBIN CONCENTRATION,[3],37.23 G/DL
same,MEAN CORPUSCULAR VOLUME,[3],62.2 fL
same,MONOCYTE,[3],0.33%
same,NEUTROPHIL,[3],96.67%
same,NUCLEATED RED BLOOD CELLS,[3],0 /100WBC
same,PLATELET COUNT,[3],927.33 x10E3/uL
same,ALANINE AMINOTRANSFERASE,[3],204.67 u/L
same,ALBUMIN,[3],3.67 G/DL
same,ALKALINE PHOSPHATASE,[3],242.33 u/L
same,ASPARTATE AMINOTRANSFERASE,[3],271.33 u/L
same,BLOOD UREA NITROGEN,[3],24.67 mg/dL
same,CARBON DIOXIDE,[3],22 mmol/L
same,CHLORIDE,[3],99.33 MEQ/L
same,CHOLESTEROL,[3],122.33 mg/dL
same,CREATINE PHOSPHOKINASE,[3],1143.67 u/L
same,CREATININE,[3],0.2 mg/dL
same,GLUCOSE,[3],515.33 mg/dL
same,LACTATE DEHYDROGENASE,[3],439.33 u/L
same,LIPASE,[3],9.67 u/L
same,PHOSPHORUS,[3],12.77 mg/dL
same,POTASSIUM,[3],4.7 MEQ/L
same,SODIUM,[3],140.6 MEQ/L
same,TOTAL BILIRUBIN,[3],0.73 mg/dL
same,TOTAL PROTEIN,[3],5.7 G/DL
same,URIC ACID,[3],1.07 mg/dL
